Records with an inconclusive call do not appear.
System: SR lymphoma cells viability, CellTiter-Glo ATP, 8-48 h
Assay: SR lymphoma cell viability over time, late-stage follow-up, mechanism study for HRAS target identification, CellTiter-Glo ATP luminescence, 8-48 h, dry powder (AID 720608)

`C#CCCCC(=O)NCCOCCOCCOc1ccc(N(C(=O)CCl)C(C(=O)NCCc2ccccc2)c2cccs2)cc1Cl` (stereo not given) gave an AC50 (measured here: 8 h treatment) of 2.43 µM, an AC50 (measured here: 24 h treatment) of 0.406 µM and an AC50 (measured here: 48 h treatment) of 0.703 µM.

With `COC(=O)c1ccc([C@@H]2c3[nH]c4ccccc4c3C[C@@H](C(=O)OC)N2C(=O)CCl)cc1` the AC50 (measured here: 8 h treatment) was 0.112 µM, the AC50 (measured here: 24 h treatment) was 0.0171 µM and the AC50 (measured here: 48 h treatment) was 0.0186 µM.

`Cc1onc(C(=O)N2CCN(C(c3ccc(Cl)cc3)c3ccc(Cl)cc3)CC2)c1[N+](=O)[O-]` was tested, and the AC50 (measured here: 8 h treatment) was 0.364 µM, the AC50 (measured here: 24 h treatment) was 0.0804 µM and the AC50 (measured here: 48 h treatment) was 0.0979 µM.

Molecule `COc1ccc(N(C(=O)CCl)C(C(=O)NCCc2ccccc2)c2cccs2)cc1Cl` (stereo not given) has an AC50 (measured here: 8 h treatment) of 0.119 µM, an AC50 (measured here: 24 h treatment) of 0.0468 µM and an AC50 (measured here: 48 h treatment) of 0.0423 µM.

With `CC(C)(C)OC(=O)NCCOCCOCCOc1ccc(N(C(=O)CCl)C(C(=O)NCCc2ccccc2)c2cccs2)cc1Cl` (stereo not given) the AC50 (measured here: 8 h treatment) was 0.265 µM, the AC50 (measured here: 24 h treatment) was 0.0611 µM and the AC50 (measured here: 48 h treatment) was 0.0531 µM.

From PubChem BioAssay AID720608 (Broad Institute, 2013)
